Data published in patent US10080779B2, “Method for increasing the expression of anti-microbial peptides by keratinocytes comprising administering a composition comprising IL-17, TNF-alpha and OSM” (Universite D'Angers, priority 2004, dated 2018).

Legend:
[1] = test system: reconstituted human epidermis (RHE); experiment: Gene expression profiling of RHE using cDNA macroarrays; assay type: cell-based; conditions: 10 ng/ml OSM 24 h
Procedure: Total RNA was isolated as described for PCR studies. DNase treatment, polyA^+ RNA enrichment, ^33P-labelled cDNA probe synthesis, purification and hybridization to custom Atlas array membranes (Bernard, Pedretti et al. 2002) were performed according to Clontech's recommendations (Clontech, Palo Alto, USA). Membranes were exposed for 5 days to a Molecular Dynamics Storm storage screen and scanned using a phosphorimager scanner (Molecular Dynamics Storm analyser, Amersham Biosciences, Uppsala, Sweden). After local background substraction, average signal intensity from duplicate spots was normalized for differences in probe labelling using the values obtained for housekeeping genes (Bernard et al., 2002). For each gene, the OSM-induced modulation was expressed as the relative expression value for stimulated versus control sample. Arbitrarily, only modulation above 2 was considered significant for confirmation using RT-real time PCR assay.
For gene expression profiling using cDNA macroarrays, 17 days old RHE were grown for 1 day in SkinEthic maintenance medium prior to stimulation in the absence or presence of OSM for 24 h. Total RNA was isolated and cDNA arrays were performed as described above.

[2] = test system: NHEK; experiment: RT-real time PCR of S100 mRNA in cytokine-stimulated NHEK; assay type: cell-based, human
Procedure: Quantitative real time PCR was carried out using the LightCycler-FastStart DNA Master^PLUS SYBR Green I kit (Roche, Mannheim, Germany). The reaction components were 1× FastStart DNA Master^PLUS SYBR Green I and 0.5 μM of forward and reverse primers for S100A7 (forward 5′-[…]-3′ (SEQ ID No: 9) and reverse 5′-[…]-3′ (SEQ ID No: 10)), S100A8 (Pattyn, Speleman et al. 2003), S100A9 (forward 5′-[…]-3′ (SEQ ID No: 11) and reverse 5′-[…]-3′ (SEQ ID No: 12)), hBD2/4 (forward 5′-[…]-3′ (SEQ ID No: 13) and reverse 5′-[…]-3′ (SEQ ID No: 14)), KRT10 (forward 5′-[…]-3′ (SEQ ID No: 15) and reverse 5′-[…]-3′ (SEQ ID No: 16)), and hydroxymethyl-bilane synthase (HMBS) as a housekeeping gene (Vandesompele, De Preter et al. 2002). After cDNA fluorescent quantification using propidium iodide, 250 ng, 25 ng and 2.5 ng of cDNA were added as PCR template in the LightCycler glass capillaries. The cycling conditions comprised a 10 min polymerase activation at 95° C. and 50 cycles at 95° C. for 10 s, 64° C. for 5 s and 72° C. for 18 s with a single fluorescence measurement. […] A mathematical model was used to determine the relative quantification of target genes compared to HMBS reference gene (Pfaffl 2001).

[3] = test system: NHEK; experiment: Cytokine measurement by ELISA in NHEK culture supernatants; assay type: cell-based, human; conditions: 10 ng/ml, 96 h

OSM: human recombinant oncostatin M, cytokine of the IL-6 family
S100A7, S100A8, S100A9 and S100 neutrophil protein gene expression [1]: strongly up-regulated | Time at which S100A7 mRNA increase starts ([2]; 10 ng/ml OSM): 12 h | psoriasin/S100A7 mRNA induction above the control value ([2]; 10 ng/ml OSM, 96 h): about 290 folds | OSM concentration at which plateau of S100A7 mRNA is reached ([2]; 48-h treatment): 6.3 ng/mL | psoriasin/S100A7 mRNA increase above control at plateau ([2]; 48-h treatment, 6.3 ng/ml OSM): fifty fold increase | BD3 production [3]: significant increase | CXCL1, CXCL5, CXCL8 production, single cytokines [3]: discrete effect
